Results: ChEMBL document CHEMBL1158518, “Synthesis and evaluation of two series of 4'-aza-carbocyclic nucleosides as adenosine A2A receptor agonists” (Bioorg Med Chem Lett, 2010)

Experiments:
Adenosine receptor A1 = molecular target: T1, Adenosine receptor A1 (Homo sapiens, UniProt P30542); assay: Agonist activity at human adenosine A1 receptor expressed in CHO cells by GTPPgammaS binding assay; format: cell-based
T1 sequence (P30542 whole entry): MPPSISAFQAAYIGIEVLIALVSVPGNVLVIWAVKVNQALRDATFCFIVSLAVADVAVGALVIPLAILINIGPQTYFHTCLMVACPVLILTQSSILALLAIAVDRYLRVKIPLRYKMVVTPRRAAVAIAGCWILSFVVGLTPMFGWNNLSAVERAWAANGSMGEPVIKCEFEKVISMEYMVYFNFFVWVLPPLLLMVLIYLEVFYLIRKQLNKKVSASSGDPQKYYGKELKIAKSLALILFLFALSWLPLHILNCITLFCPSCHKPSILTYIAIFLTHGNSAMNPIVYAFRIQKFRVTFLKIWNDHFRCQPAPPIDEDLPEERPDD

Adenosine receptor A3 = molecular target: T2, Adenosine receptor A3 (Homo sapiens, UniProt P0DMS8); assay: Agonist activity at human adenosine A3 receptor expressed in CHO cells by GTPPgammaS binding assay; format: cell-based
T2 sequence (P0DMS8 whole entry): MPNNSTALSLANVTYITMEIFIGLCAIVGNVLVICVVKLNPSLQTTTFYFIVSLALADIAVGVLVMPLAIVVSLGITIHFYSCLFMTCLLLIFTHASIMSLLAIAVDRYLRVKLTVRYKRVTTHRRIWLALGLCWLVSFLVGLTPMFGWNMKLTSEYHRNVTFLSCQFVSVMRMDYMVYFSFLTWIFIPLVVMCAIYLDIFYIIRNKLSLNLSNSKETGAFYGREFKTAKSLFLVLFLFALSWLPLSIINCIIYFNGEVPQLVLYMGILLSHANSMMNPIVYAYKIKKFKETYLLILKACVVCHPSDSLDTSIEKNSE

[1] = molecular target: T3, Adenosine receptor A3 (Homo sapiens) (UniProt P0DMS8); assay: Antagonist activity at human adenosine A3 receptor expressed in CHO cells assessed as I-AB-MECA-induced GTPPgammaS binding response; format: functional, cell-based; set-up: concentration or dose not given beside the values
T3 sequence (whole entry): T2 sequence (P0DMS8 whole entry)

Adenosine receptor A2a [2] = molecular target: T4, Adenosine receptor A2a (Homo sapiens, UniProt P29274)
T4 sequence (P29274 whole entry): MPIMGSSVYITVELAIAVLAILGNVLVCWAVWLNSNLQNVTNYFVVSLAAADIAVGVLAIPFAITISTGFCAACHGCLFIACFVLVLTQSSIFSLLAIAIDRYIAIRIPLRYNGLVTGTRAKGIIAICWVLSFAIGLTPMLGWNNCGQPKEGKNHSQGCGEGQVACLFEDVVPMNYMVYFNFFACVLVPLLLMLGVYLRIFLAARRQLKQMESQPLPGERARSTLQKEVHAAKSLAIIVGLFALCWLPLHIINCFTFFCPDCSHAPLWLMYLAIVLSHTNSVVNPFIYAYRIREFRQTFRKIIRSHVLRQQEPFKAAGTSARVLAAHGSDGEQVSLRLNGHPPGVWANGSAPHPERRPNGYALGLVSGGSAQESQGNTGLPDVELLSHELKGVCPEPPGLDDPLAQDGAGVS
Description: Agonist activity at adenosine A2A receptor in human neutrophils assessed as inhibition of fMLP-induced reactive oxygen species release by chemiluminescence assay

Adenosine receptor A2b = molecular target: T5, Adenosine receptor A2b (Homo sapiens, UniProt P29275)
T5 sequence (P29275 whole entry): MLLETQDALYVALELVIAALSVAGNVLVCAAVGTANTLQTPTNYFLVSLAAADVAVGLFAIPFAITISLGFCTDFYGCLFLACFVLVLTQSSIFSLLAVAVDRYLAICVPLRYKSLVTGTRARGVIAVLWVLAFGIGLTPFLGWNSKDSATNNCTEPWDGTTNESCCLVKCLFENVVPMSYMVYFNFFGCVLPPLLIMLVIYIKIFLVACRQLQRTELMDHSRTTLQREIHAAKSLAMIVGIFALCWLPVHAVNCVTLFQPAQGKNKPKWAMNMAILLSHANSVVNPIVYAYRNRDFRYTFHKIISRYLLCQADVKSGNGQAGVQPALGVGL
Description: Agonist activity at human adenosine A2B receptor expressed in CHO cells assessed as effect on cAMP production by luciferase reporter gene assay

Adenosine receptor A2a [3] = molecular target: T4, Adenosine receptor A2a; assay: biochemical
PBMC [4] = assay: Antiinflammatory activity in human PBMC assessed as inhibition of LPS-induced TNFalpha production after 20 hrs by ELISA; format: functional, cell-based
PBMC [5] = assay: Antiinflammatory activity in rat PBMC assessed as inhibition of LPS-induced TNFalpha production after 20 hrs by ELISA
[6] = molecular target: T3, Adenosine receptor A3 (Homo sapiens); assay: Partial agonist activity at human adenosine A3 receptor expressed in CHO cells assessed as I-AB-MECA-induced GTPPgammaS binding response; format: cell-based

SMILES: Cc1cnn([C@H]2C[C@@H](n3cnc4c(N)nc(N[C@H](CO)Cc5ccccc5)nc43)[C@H](O)[C@@H]2O)c1
- EC50 (Adenosine receptor A1): > 10000 nM
- EC50 (Adenosine receptor A3): 449 nM
- Activity [1]: > 50%
- IC50 (Adenosine receptor A2a [2]): 56 nM
- EC50 (Adenosine receptor A2b): > 10000 nM
- Ki (Adenosine receptor A2a [3]): 229 nM

SMILES: CCC(CC)CNc1nc(NCCc2cn(CC)cn2)nc2c1ncn2[C@@H]1C[C@H](n2cc(CO)cn2)[C@@H](O)[C@H]1O
- EC50 (Adenosine receptor A1): 4100 nM
- EC50 (Adenosine receptor A3): 789 nM
- Activity [1]: > 50%
- IC50 (PBMC [4]): 21 nM
- IC50 (Adenosine receptor A2a [2]): 5.3 nM
- EC50 (Adenosine receptor A2b): > 10000 nM
- Ki (Adenosine receptor A2a [3]): 5.4 nM
- IC50 (PBMC [5]): 3590 nM

SMILES: CCC(=O)N[C@H]1C[C@@H](n2cnc3c(NCC(c4ccccc4)c4ccccc4)nc(NCCc4cn(C)cn4)nc32)[C@H](O)[C@@H]1O
- EC50 (Adenosine receptor A1): > 10000 nM
- EC50 (Adenosine receptor A3): 42 nM
- IC50 (Adenosine receptor A2a [2]): 4.7 nM
- Ki (Adenosine receptor A2a [3]): 4.6 nM

SMILES: CCC(=O)N[C@H]1C[C@@H](n2cnc3c(NC(CC)CC)nc(NCCc4cn(CC)cn4)nc32)[C@H](O)[C@@H]1O
- EC50 (Adenosine receptor A1): > 10000 nM
- EC50 (Adenosine receptor A3): 1640 nM
- IC50 (PBMC [4]): 4.7 nM
- IC50 (Adenosine receptor A2a [2]): 2.7 nM
- EC50 (Adenosine receptor A2b): > 10000 nM
- Ki (Adenosine receptor A2a [3]): 5.4 nM
- IC50 (PBMC [5]): 255 nM

SMILES: CCC(=O)N[C@H]1C[C@@H](n2cnc3c(NCC(c4ccccc4)c4ccccc4)nc(NCCc4c[nH]cn4)nc32)[C@H](O)[C@@H]1O
- EC50 (Adenosine receptor A1): > 10000 nM
- EC50 (Adenosine receptor A3): 139 nM
- IC50 (Adenosine receptor A2a [2]): 5.9 nM
- EC50 (Adenosine receptor A2b): > 10000 nM
- Ki (Adenosine receptor A2a [3]): 5.2 nM

SMILES: CC(C)n1cnc(CCNc2nc(NCC(c3ccccc3)c3ccccc3)c3ncn([C@@H]4C[C@H](NC(=O)C(C)(C)C)[C@@H](O)[C@H]4O)c3n2)c1
- IC50 (Adenosine receptor A2a [2]): 542 nM
- Ki (Adenosine receptor A2a [3]): 382 nM

SMILES: CC(C)n1cnc(CCNc2nc(NCC(c3ccccc3)c3ccccc3)c3ncn([C@@H]4C[C@H](NC(=O)Cc5ccccc5)[C@@H](O)[C@H]4O)c3n2)c1
- Ki (Adenosine receptor A2a [3]): 1670 nM

SMILES: CCCCC#Cc1nc(N)c2ncn([C@@H]3C[C@H](NC(=O)CC)[C@@H](O)[C@H]3O)c2n1
- EC50 (Adenosine receptor A1): > 10000 nM
- EC50 (Adenosine receptor A3): 105 nM
- IC50 (Adenosine receptor A2a [2]): 12 nM
- EC50 (Adenosine receptor A2b): > 10000 nM
- Ki (Adenosine receptor A2a [3]): 18 nM

SMILES: Nc1nc(N[C@H](CO)Cc2ccccc2)nc2c1ncn2[C@@H]1C[C@H](n2cccn2)[C@@H](O)[C@H]1O
- Ki (Adenosine receptor A2a [3]): 702 nM

SMILES: CC(C)C(=O)N[C@H]1C[C@@H](n2cnc3c(NCC(c4ccccc4)c4ccccc4)nc(NCCc4cn(C(C)C)cn4)nc32)[C@H](O)[C@@H]1O
- IC50 (Adenosine receptor A2a [2]): 67 nM
- Ki (Adenosine receptor A2a [3]): 27 nM

SMILES: CC(C)n1cnc(CCNc2nc(NCC(c3ccccc3)c3ccccc3)c3ncn([C@@H]4C[C@H](NC(=O)C5CC5)[C@@H](O)[C@H]4O)c3n2)c1
- EC50 (Adenosine receptor A1): > 10000 nM
- EC50 (Adenosine receptor A3): 357 nM
- Activity [1]: > 50%
- IC50 (Adenosine receptor A2a [2]): 60 nM
- Ki (Adenosine receptor A2a [3]): 16 nM

SMILES: Nc1nc(N[C@H](CO)Cc2ccccc2)nc2c1ncn2[C@@H]1C[C@H](n2ccccc2=O)[C@@H](O)[C@H]1O
- Ki (Adenosine receptor A2a [3]): 5490 nM

SMILES: CCC(=O)N[C@H]1C[C@@H](n2cnc3c(NCC(c4ccccc4)c4ccccc4)nc(NCCc4cn(CC)cn4)nc32)[C@H](O)[C@@H]1O
- EC50 (Adenosine receptor A3): 44 nM
- IC50 (Adenosine receptor A2a [2]): 5 nM
- Ki (Adenosine receptor A2a [3]): 5.2 nM

SMILES: CCc1cnn([C@H]2C[C@@H](n3cnc4c(N)nc(N[C@H](CO)Cc5ccccc5)nc43)[C@H](O)[C@@H]2O)c1
- EC50 (Adenosine receptor A1): > 10000 nM
- EC50 (Adenosine receptor A3): 776 nM
- Activity [1]: > 50%
- IC50 (Adenosine receptor A2a [2]): 62 nM
- EC50 (Adenosine receptor A2b): > 10000 nM
- Ki (Adenosine receptor A2a [3]): 182 nM

SMILES: CCc1cnn([C@H]2C[C@@H](n3cnc4c(NCC(c5ccccc5)c5ccccc5)nc(NCCc5cn(CC)cn5)nc43)[C@H](O)[C@@H]2O)c1
- Ki (Adenosine receptor A2a [3]): 146 nM

SMILES: Nc1nc(N[C@H](CO)Cc2ccccc2)nc2c1ncn2[C@@H]1C[C@H](n2ncc3ccccc32)[C@@H](O)[C@H]1O
- Ki (Adenosine receptor A2a [3]): 5410 nM

SMILES: CC(C)n1cnc(CCNc2nc(NCC(c3ccccc3)c3ccccc3)c3ncn([C@@H]4C[C@H](NC(=O)CCc5ccccc5)[C@@H](O)[C@H]4O)c3n2)c1
- Ki (Adenosine receptor A2a [3]): 5470 nM

SMILES: CCC(=O)N[C@H]1C[C@@H](n2cnc3c(NCC(c4ccccc4)c4ccccc4)nc(NCCc4cn(CC(=O)O)cn4)nc32)[C@H](O)[C@@H]1O
- Ki (Adenosine receptor A2a [3]): 97 nM

SMILES: CCNC(=O)[C@H]1O[C@@H](n2cnc3c(N)nc(NCCc4ccc(CCC(=O)O)cc4)nc32)[C@H](O)[C@@H]1O [CGS-21680]
- IC50 (PBMC [4]): 58 nM
- IC50 (PBMC [5]): 83 nM

SMILES: Nc1nc(N[C@H](CO)Cc2ccccc2)nc2c1ncn2[C@@H]1C[C@H](n2cc(-c3ccccc3)cn2)[C@@H](O)[C@H]1O
- Ki (Adenosine receptor A2a [3]): > 10000 nM

SMILES: CC(C)n1cnc(CCNc2nc(NCC(c3ccccc3)c3ccccc3)c3ncn([C@@H]4C[C@H](NC(=O)C5CCC5)[C@@H](O)[C@H]4O)c3n2)c1
- EC50 (Adenosine receptor A1): > 10000 nM
- EC50 (Adenosine receptor A3): 480 nM
- Activity [6]: 48%
- IC50 (Adenosine receptor A2a [2]): 40 nM
- Ki (Adenosine receptor A2a [3]): 7.9 nM

SMILES: CCC(=O)N[C@H]1C[C@@H](n2cnc3c(NC(CC)CC)nc(NCCc4cn(C(C)C)cn4)nc32)[C@H](O)[C@@H]1O
- EC50 (Adenosine receptor A1): > 10000 nM
- EC50 (Adenosine receptor A3): 2520 nM
- IC50 (PBMC [4]): 5.9 nM
- IC50 (Adenosine receptor A2a [2]): 8.3 nM
- Ki (Adenosine receptor A2a [3]): 8 nM
- IC50 (PBMC [5]): 458 nM

SMILES: CCCC(=O)N[C@H]1C[C@@H](n2cnc3c(NCC(c4ccccc4)c4ccccc4)nc(NCCc4cn(C(C)C)cn4)nc32)[C@H](O)[C@@H]1O
- IC50 (Adenosine receptor A2a [2]): 160 nM
- Ki (Adenosine receptor A2a [3]): 39 nM

SMILES: CCNC(=O)[C@H]1O[C@@H](n2cnc3c(N)ncnc32)[C@H](O)[C@@H]1O [NECA]
- IC50 (PBMC [4]): 40 nM
- IC50 (PBMC [5]): 187 nM

SMILES: CCn1nnc([C@H]2O[C@@H](n3cnc4c(N)nc(N[C@H](CO)Cc5ccccc5)nc43)[C@H](O)[C@@H]2O)n1 [GW-328267]
- EC50 (Adenosine receptor A1): 882 nM
- Activity [1]: > 50%
- IC50 (PBMC [4]): 1.3 nM
- IC50 (Adenosine receptor A2a [2]): 0.4 nM
- IC50 (PBMC [5]): 2.9 nM
